From US20120238557A1, “AMINOTHIAZINE OR AMINOOXAZINE DERIVATIVE HAVING AMINO LINKER” (SHIONOGI & CO., LTD., priority 2009, published 2012)

What was measured:
Recombinant human BACE1 = molecular target: T1, Recombinant human BACE1 (Homo sapiens, UniProt P56817); assay: Assay of BACE1 inhibiting activity; format: biochemical; conditions: 50% inhibitory concentration against enzymatic activity of recombinant human BACE1; Table 2
T1 construct: purchased R&D Systems

[1] = tested on: Neuroblastoma SH-SY5Y cells (SH/APPwt) with human wild-type β-APP excessively expressed; assay: Measurement of β-amyloid (Aβ) production inhibitory effect in cell; format: cell-based; conditions: amount needed to inhibit Aβ production by 50%, SH/APPwt cells, 24 hours, Table 3, read-out: IC50
Protocol: Neuroblastoma SH-SY5Y cells (SH/APPwt) with human wild-type β-APP excessively expressed therein were prepared at 8×10^5 cells/mL, and 150 μl portions thereof were inoculated into each well of a 96-well culture plate (Falcon). The cells were cultured for 2 hours at 37° C. in a 5% gaseous carbon dioxide incubator. Then, a solution which had been preliminarily prepared by adding and suspending the test compound (DMSO (dimethyl sulfoxide) solution) so as to be 2 μl/50 μl medium was added to the cell sap. Namely, the final DMSO concentration was 1%, and the amount of the cell culture was 200 μl. After the incubation was performed for 24 hours from the addition of the test compound, 100 μl of the culture supernatant was collected from each fraction. The amount of the Aβ in each fraction was measured.
The Aβ amount was measured as follows. 10 μl of a homogeneous time resolved fluorescence (HTRF) measurement reagent (Amyloid β 1-40 peptide; IBA Molecular Holding, S. A.) and 10 μl of the culture supernatant were put into a 384-well half area microplate (black microplate, Costar) and mixed with each other, and then left standing overnight at 4° C. while the light was shielded. Then, the fluorescence intensity (excitation wavelength: 337 nm, measurement wavelength: 620 nm and 665 nm) was measured with a Wallac 1420 multilabel counter (Perkin Elmer life sciences).

[2] = Brain distribution studies; format: in vivo; conditions: brain/plasma; rat, intravenous 0.5 mg/mL/kg, 30 minutes later; read-out: brain Kp value (area ratio brain/plasma)
Protocol: Intravenous administration is carried out to a rat by 0.5 mg/mL/kg dosage of the compound. […] Then, the brain was extracted and 20-25% of homogenate thereof was prepared with distilled water. On the other hand, the obtained blood is used as plasma after centrifuging. Then, to the brain sample was added the control plasma at 1:1. To the plasma samples was added the control brains at 1:1. Each sample was measured using LC/MS/MS. The obtained area ratio (a brain/plasma) was used for the brain Kp value.

T1 sequence (P56817 46-501): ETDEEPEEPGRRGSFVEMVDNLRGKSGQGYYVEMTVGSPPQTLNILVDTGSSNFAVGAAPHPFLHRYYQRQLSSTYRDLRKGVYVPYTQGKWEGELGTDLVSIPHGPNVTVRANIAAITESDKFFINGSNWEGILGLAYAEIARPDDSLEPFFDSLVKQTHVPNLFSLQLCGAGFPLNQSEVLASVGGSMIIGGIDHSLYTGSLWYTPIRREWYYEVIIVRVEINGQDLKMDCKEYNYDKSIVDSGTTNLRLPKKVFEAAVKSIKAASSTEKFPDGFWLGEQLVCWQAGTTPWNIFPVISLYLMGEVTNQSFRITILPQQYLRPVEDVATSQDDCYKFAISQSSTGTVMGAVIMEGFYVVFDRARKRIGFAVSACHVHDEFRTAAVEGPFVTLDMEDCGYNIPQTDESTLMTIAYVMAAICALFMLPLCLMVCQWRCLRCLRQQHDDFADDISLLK

## C[C@@]1(c2cc(Nc3ncccc3C#N)ccc2F)CCSC(N)=N1 [Compound I-11]
Recombinant human BACE1
  IC50: 0.1 µM
[1]
  IC50: 0.009 µM
[2]
  Kp at 0.5 h: 2.2
